Data on two compounds can be found in patent US8354499B2, “Cyanine-based probe\tag-peptide pair fluorescence protein imaging and fluorescence protein imaging methods” (Battelle Memorial Institute, priority 2007, dated 2013).

For series [1] the following is noted: depending on binding peptide; cited from earlier work.
Series [2] deals with tagged MLCK peptide (calmodulin binding peptide of myosin light chain kinase with SEQ ID NO. 2 tag on the C-terminus). Kind of series: Fluorescence titration of the formula (I) probe with tagged MLCK peptide. Conditions: titration of tagged MLCK peptide into probe solution, FIG. 2. The source says:
For the present study, a tagged peptide was created utilizing the calmodulin binding peptide of the myosin light chain kinase (MLCK) having SEQ ID NO. 2 engineered onto the C-terminus (henceforth tagged MLCK peptide). To determine the binding affinity of the probe to the tag, the tagged MLCK peptide was titrated into a solution containing a probe having formula (I). […] This corresponds to peak molar binding in the absence of ethanedithiol.

Series [3] deals with Non-tagged MLCK peptide. Kind of series: Control titration of the probe with non-tagged MLCK peptide. Type of series: binding. Conditions: FIG. 2 circles.
Series [4] deals with peptide-tag (SEQ ID NO. 2) versus FlAsH tag (SEQ ID NO. 3). Kind of series: Single-pot selective labeling / FRET study, tagged MLCK peptide and FlAsH-tag calmodulin. Type of series: binding. On the procedure:
Fluorescent resonance energy transfer (FRET) studies were also performed. Calmodulin which is known to bind MLCK in a 1:1 ratio in the presence of calcium was covalently linked to a FlAsH-tag having sequence CysCysProGlyCysCys (SEQ ID NO. 3). SEQ ID NO. 2 was utilized to label the MLCK peptide as described above.

Series [5] can be described thus: Absorbance, emission and photophysical properties of free and tag-bound probe. The series is classed as physicochemical. The source says: In addition to NMR, the synthesized probe of formula (I) was characterized by determining the absorbance and emission spectra, as presented in FIG. 1. The free probe has an absorbance maximum at 560 nm and an emission maximum at 568 nm.
The spectra of FIG. 1 are normalized to the probe/tagged MLCK peptide pair.
The tag bound probe has a quantum yield of 0.28.

Structures are written as SMILES.

In the case of `O=C(O)c1ccccc1-c1c2ccc(=O)c([As]3SCCS3)c-2oc2c([As]3SCCS3)c(O)ccc12` [FlAsH], in series [1], the “brightness (reported)” value was 41-60.
As to `CC1(C)C(/C=C/C=C2/N(CCCCS(=O)(=O)O)c3ccc([As]4SCCS4)cc3C2(C)C)=[N+](CCCCS(=O)(=O)[O-])c2ccc([As]3SCCS3)cc21` [formula (I)], in series [2], the “increase of probe fluorescence upon addition of tagged peptide” value is 5.8 fold. In series [3], the “fluorescence change on titration with non-tagged MLCK peptide” value was “no increase in fluorescence”. Further, in series [4] (single pot labeling with FlAsH and formula (I), FRET results), the “preference for binding of the peptide-tag over FlAsH tag” value is recorded as 85/15. Also, the “FRET between FlAsH labeled calmodulin and formula (I) labeled tagged MLCK peptide” value in series [4] (titration with 0.1-1 μM labeled peptide, FIG. 3) is “FRET was observed in proportion to labeling”. Also, in series [5], the extinction coefficient was 180,000. In series [5] (free probe), this compound had an absorbance maximum of 560 nm and an emission maximum of 568 nm. In addition, the “lifetime under photo bleaching conditions” value in series [5] (peptide bound probe, relative to FlAsH) is “three times longer than that of FlAsH”. The fluorescence emission maximum in series [5] (probe bound to peptide tag (red-shift)) was determined as 576 nm. In series [5] (tag bound probe), the “brightness relative to FlAsH and ReAsH” value is on record as “considerably higher than ReAsH”; the quantum yield came out at 0.28.
